Test results: patent publication US8084621B2, “3-Pyrrolo[b]cyclohexylene-2-dihydroindolinone derivatives and uses thereof” (Jiangsu Simcere Pharmaceutical R&D Co. Ltd., priority 2006, dated 2011)

Key:
[1] = test system: Human Colon Cancer Cell Line (CACO-2); assay: Tumor cell proliferation assay (MTT), CACO-2; assay type: cell-based; conditions: concentration of 10^−5 mol/L, preliminary screening, 72 hours, read-out: Inhibition rate % CACO-2
Text: (§1) The assay used generally is the blue tetrazolium bromide (MTT) method. […] The amount of formazan can be detected by the microplate reader through the absorption value at 570 nm. The amount of formazan product generated is proportional to the number of living cells in the sample, so the OD value may reflect the number of living cells and the ability of a test drug to inhibit or kill cells. The MTT assay may be used in determining the ability of different compounds of the present invention to inhibit one or more cancer cells proliferation. Similar assays can be designed along the same lines for any cancer cell using techniques well known in the art.
(§2) The assay used generally is the blue tetrazolium bromide (MTT) method. […] Intracellular purple formazan salt crystals can be solved in DMSO and the absorption value at 570 nm is detected by the microplate reader, then the number of living cells can be detected indirectly. So MTT assay may be used to determine the ability of a compound of the present invention to inhibit cell proliferation. Similar assays can be designed along the same lines for any cancer cell using techniques well known in the art.
2.2.10 Human Colon Cancer Cell Line (CACO-2)
The cell of 2.2.10 cultured in DMEM/High glucose medium containing 12% fetal bovine serum in the condition of 37° C., 5% CO2.
(§3) 2.3.1 Cell seeding: Trypsinize the cell by 0.05% trypsin-EDTA and add RPMI 1640 medium (DMEM or 5A) containing 12% calf serum. Count the number, then dilute to 1.67×10^4/ml. Add 180 ul/well to the 96 well plate (3000 cells/well).
(§4) 2.3.2 Culture: cells are incubated for 24 hours at 37° C. under 5% CO2.
(§5) 2.3.3 Preliminary screening: The compounds are firstly diluted to 0.1 mol/L with DMSO, and then diluted to three concentrations of 10^−5 mol/L, 10^−6 mol/L and 10^−7 mol/L. Add 20 ul test compounds to the 96 well plate and incubate for 72 hours. Each group has three parallel wells and all experiments repeat three times. Each inhibition ratio is calculated, then an average value of three times is taken as the measured value. 2.3.4 Staining 2.3.4.1 Attached cell: add 20 ul/well MTT to the 96-well plates; incubate for 4 hours in the incubator. Pour out the culture medium in the well and add 100 ul/well DMSO. Shake the plate for 5 min. 2.3.4.2 Suspension cell: add 20 ul/well MTT to the 96-well plates; incubate for 4 hours in the incubator. Add 50 ul/well 20% SDS and incubate for overnight in the incubator. 2.3.5 Reading the plates: read the absorbance A570-A630 with the Infinite M200 microtiter plate reader. Calculate the inhibition ratio of the test compounds. 2.3.6 Secondary screening: the compounds whose inhibition ratio is greater than 50% at the concentrations of 10^−5 mol/L in the preliminary screening will be picked out for Secondary screening. Dilute these compounds to ten concentrations: 10^−5 mol/L, 0.5×10^−5 mol/L, 10^−6 mol/L, 0.8×10^−6 mol/L, 0.6×10^−6 mol/L, 0.4×10^−6 mol/L, 0.2×10^−6 mol/L, 10^−7 mol/L, 0.8×10^−7 mol/L and 0.4×10^−7 mol/L. Add 20 ul test compound solution to the 96 well plate and incubate for 48 hours. Each group has three parallel wells and all experiments repeat for three times. Read the plates and calculate the inhibition ratio according to the preliminary screening method. 2.3.7 Calculate the Inhibition Ratio of Cell Proliferation and the IC50
(§6) According to the inhibition ratio of cell proliferation at the different concentrations of the compound, inhibition ratio of 50% of the test compound is calculated through the logarithm of the concentration of the compound with the Logit [I] linear regression, and an average value of three times is taken as the measured value of a sample.

[2] = test system: Human Small Cell Lung Cancer Cell Line (NCI-H446); assay: Tumor cell proliferation assay (MTT), NCI-H446; assay type: cell-based; conditions: for inhibition at 10 µM: concentration of 10^−5 mol/L, preliminary screening, 72 hours, read-out: Inhibition rate % NCI-H446; for IC50: secondary screening, 48 hours
Text: as §1, §2
2.2.5 Human Small Cell Lung Cancer Cell Line (NCI-H446)
The cells of the 2.2.1, 2.2.2, 2.2.3, 2.2.4, 2.2.5 cultured with RPMI 1640 containing 12% calf serum in the condition of 37° C., 5% CO2.
as §3, §4, §5, §6

Compound	inhibition at 10 µM [1]	inhibition at 10 µM [2]	IC50 [2]
Cc1[nH]c2c(c1C(=O)NCCO)CCC/C2=C1/C(=O)Nc2ccccc21 [I-8, N-(2-hydroxyethyl)-2-methyl-7-[1,2-dihydro-2-oxo-3H-indol-(Z)-3-ylidene]-4,5,6,7-tetrahydro-1H-indole-3-carboxamide]	17%	–	–
CCN(CC)CCNC(=O)c1c(C)[nH]c2c1CCC/C2=C1/C(=O)Nc2ccccc21 [I-5, N-(2-(diethylamino)ethyl)-2-methyl-7-[1,2-dihydro-2-oxo-3H-indol-(Z)-3-ylidene]-4,5,6,7-tetrahydro-1H-indole-3-carboxamide]	44.1%	–	–
CCN(CC)CCNC(=O)c1c(C)[nH]c2c1CCC/C2=C1/C(=O)Nc2ccc(C)cc21 [I-4, N-(2-(diethylamino)ethyl)-2-methyl-7-[1,2-dihydro-5-methyl-2-oxo-3H-indol-(Z)-3-ylidene]-4,5,6,7-tetrahydro-1H-indole-3-carboxamide]	–	57.7%	5.17 µM
Cc1[nH]c2c(c1C(=O)NCC(O)CN1CCCCC1)CCC/C2=C1/C(=O)Nc2ccccc21 (centres unmarked) [I-73, N-(2-hydroxy-3-(piperidin-1-yl)propyl)-2-methyl-7-[1,2-dihydro-2-oxo-3H-indol-(Z)-3-ylidene]-4,5,6,7-tetrahydro-1H-indole-3-carboxamide]	44.4%	–	–
Cc1[nH]c2c(c1C(=O)NCC(O)CN1CCCC1)CCC/C2=C1/C(=O)Nc2ccccc21 (centres unmarked) [I-70, N-(2-hydroxy-3-(pyrrolidin-1-yl)propyl)-2-methyl-7-[1,2-dihydro-2-oxo-3H-indol-(Z)-3-ylidene]-4,5,6,7-tetrahydro-1H-indole-3-carboxamide]	–	87%	2.64 µM
Cc1[nH]c2c(c1C(=O)NCCO)CCC/C2=C1/C(=O)Nc2ccc(F)cc21 [I-9, N-(2-hydroxyethyl)-2-methyl-7-[1,2-dihydro-5-fluoro-2-oxo-3H-indol-(Z)-3-ylidene]-4,5,6,7-tetrahydro-1H-indole-3-carboxamide]	18%	–	–
Cc1[nH]c2c(c1C(=O)NCC(O)CN1CCOCC1)CCC/C2=C1/C(=O)Nc2ccc(F)cc21 (centres unmarked) [I-68, N-(2-hydroxy-3-morpholinopropyl)-2-methyl-7-[1,2-dihydro-5-fluoro-2-oxo-3H-indol-(Z)-3-ylidene]-4,5,6,7-tetrahydro-1H-indole-3-carboxamide]	–	29.1%	–
Cc1[nH]c2c(c1C(=O)NCC(O)CN1CCCCC1)CCC/C2=C1/C(=O)Nc2ccc(F)cc21 (centres unmarked) [I-74, N-(2-hydroxy-3-(piperidin-1-yl)propyl)-2-methyl-7-[1,2-dihydro-5-fluoro-2-oxo-3H-indol-(Z)-3-ylidene]-4,5,6,7-tetrahydro-1H-indole-3-carboxamide]	83.1%	–	–
CCN(CC)CCNC(=O)c1c(C)[nH]c2c1CCC/C2=C1/C(=O)Nc2ccc(Cl)cc21 [I-3, N-(2-(diethylamino)ethyl)-2-methyl-7-[1,2-dihydro-5-chloro-2-oxo-3H-indol-(Z)-3-ylidene]-4,5,6,7-tetrahydro-1H-indole-3-carboxamide]	–	69.9%	6.47 µM
CCN(CC)CC(O)CNC(=O)c1c(C)[nH]c2c1CCC/C2=C1/C(=O)Nc2ccccc21 (centres unmarked) [I-63, N-(3-(diethylamino)-2-hydroxypropyl)-2-methyl-7-[1,2-dihydro-2-oxo-3H-indol-(Z)-3-ylidene]-4,5,6,7-tetrahydro-1H-indole-3-carboxamide]	–	79%	2.27 µM
Cc1[nH]c2c(c1C(=O)NCCN(C)C)CCC/C2=C1/C(=O)Nc2ccc(F)cc21 [I-6, N-(2-(dimethylamino)ethyl)-2-methyl-7-[1,2-dihydro-5-fluoro-2-oxo-3H-indol-(Z)-3-ylidene]-4,5,6,7-tetrahydro-1H-indole-3-carboxamide]	–	27.1%	–
Cc1[nH]c2c(c1C(=O)NCC(O)CN1CCCC1)CCC/C2=C1/C(=O)Nc2ccc(F)cc21 (centres unmarked) [I-71, N-(2-hydroxy-3-(pyrrolidin-1-yl)propyl)-2-methyl-7-[1,2-dihydro-5-fluoro-2-oxo-3H-indol-(Z)-3-ylidene]-4,5,6,7-tetrahydro-1H-indole-3-carboxamide]	–	87.5%	2.52 µM
Cc1[nH]c2c(c1C(=O)N1CCN(C)CC1)CCC/C2=C1/C(=O)Nc2ccc(F)cc21 [I-14, 2-methyl-3-(4-methylpiperazine-1-carbonyl)-7-[1,2-dihydro-5-fluoro-2-oxo-3H-indol-(Z)-3-ylidene]-4,5,6,7-tetrahydro-1H-indole]	2.36%	–	–
Cc1[nH]c2c(c1C(=O)NCC(O)CN1CCN(C)CC1)CCC/C2=C1/C(=O)Nc2ccc(F)cc21 (centres unmarked) [I-77, N-[2-hydroxy-3-(4-methylpiperazin-1-yl)propyl]-2-methyl-7-[1,2-dihydro-5-fluoro-2-oxo-3H-indol-(Z)-3-ylidene]-4,5,6,7-tetrahydro-1H-indole-3-carboxamide]	–	57.2%	8.15 µM
CCN(CC)CCNC(=O)c1c(C)[nH]c2c1CCC/C2=C1/C(=O)Nc2ccc(F)cc21 [I-2, N-(2-(diethylamino)ethyl)-2-methyl-7-[1,2-dihydro-5-fluoro-2-oxo-3H-indol-(Z)-3-ylidene]-4,5,6,7-tetrahydro-1H-indole-3-carboxamide]	43%	–	–
Cc1[nH]c2c(c1C(=O)NCCCN(C)C)CCC/C2=C1/C(=O)Nc2ccc(Cl)cc21 [I-7, N-(3-(dimethylamino)propyl)-2-methyl-7-[1,2-dihydro-5-chloro-2-oxo-3H-indol-(Z)-3-ylidene]-4,5,6,7-tetrahydro-1H-indole-3-carboxamide]	–	62.7%	5.99 µM
